From US20110256121A1, “METHODS AND KITS FOR DIAGNOSING OR MONITORING AUTOIMMUNE AND CHRONIC INFLAMMATORY DISEASES” (THE REGENTS OF THE UNIVERSITY OF MICHIGAN, priority 2008, published 2011)
Read-outs that look alike come from different tables or passages of the source.

Experiments:
TT48E = conditions: 6 experiments
CD70 promoter = test: Bisulfite sequencing of the CD70 promoter in CD4+ T cells; format: cell-based, human; conditions: anti-CD3 and anti-CD28 stimulated CD4+ T cells vs stimulated untreated controls
Method: (§1) In other studies, T cells were isolated by negative selection using magnetic beads and instructions provided by the manufacturer (Pan T cell Isolation Kit, Miltenyi), and the CD4+ or CD8+ subset was similarly isolated by magnetic cell sorting. Jurkat cells (E6-1) were cultured as previously described (See, e.g., Cornacchia et al., J Immunol 140:2197 (1998)). Purified human CD4+ T cells were first stimulated with plate bound anti-CD3 and soluble anti-CD28. Briefly, 24 well plates were coated with 300 μl of anti-CD3 (10 μg/ml in PBS—SouthernBiotech) 18 hours 4° C., washed, then 2×10^6 purified T cells were added to the wells in 2 ml RPMI 1640/10% FCS containing 2 μg/ml anti-CD28 (SouthernBiotech). The plates were incubated 37° C. in a humidified atmosphere containing 5% CO2 for 18-24 hours, then treated with 5 μm 5-azaC (Aldrich), 50 μm Pca (Sigma), 20 μm Hyd (Aldrich), 40 μm UO126 (Promega) or 25 μm PD98059 (Promega), and cultured for 3 additional days as described (See, e.g., Oelke et al., Arthritis Rheum 50:1850 (2004)).
Bisulfite sequencing. The putative CD70 promoter was identified using the published CD70 cDNA sequence and Tfsitescan software. Deoxycytosine (dC) and deoxymethylcytosine (d^mC) bases in the gene promoter and 5′ flanking sequences were identified by bisulfite treatment of purified DNA followed by nested PCR amplification of 3 sequential fragments to span the entire region. The primers were designed to avoid CG pairs and to account for the conversion of dC to dU by the bisulfite. EcoRI sites were added to the forward primers, and XbaI to the reverse, to facilitate cloning. The amplified fragments were then cloned into PBS+, and 5 clones sequenced for each fragment. The primers used were: […]
The effect of lupus and DNA methylation inhibitors on a regulatory element in the CD70 promoter was examined. DNA was isolated from the CD4+ T cells of 7 healthy individuals or 6 lupus patients, bisulfite treated, the region from −466-−515, containing 6 CG pairs was amplified by PCR, and 5 fragments sequenced from each individual. The average methylation status of the 6 CG pairs for healthy versus lupus individuals is shown (FIG. 8, NI and Lupus, respectively). CD4+ T cells from 5 individuals were also stimulated with PHA, treated with the irreversible DNA methyltransferase inhibitor 5-azacytidine (5-azaC), and the methylation status of the 6 CG pairs similarly analyzed from the 25 fragments sequenced (FIG. 8, 5-azaC). […] Results are presented as the mean±SEM of the average methylation of the 6 CG pairs, measured from the 10-35 determinations/group.
The effects of the DNA methylation inhibitors on the methylation status of this region were then compared. […] Again, 5 cloned fragments were sequenced from each control, for a total of 35 determinations per CG pair. […] FIG. 14 compares the average methylation for the 10 CG pairs (−515 to −423) in the T cells treated with DNA methylation inhibitors relative to stimulated, untreated controls.

CD70 mRNA = test: CD70 transcripts by real time RT-PCR in anti-CD3 + anti-CD28 stimulated CD4+ T cells; format: cell-based, human; conditions: 5 μm 5-azaC, 50 μm Pca, 20 μm Hyd, 40 μm U0126, 25 μm PD98059, 3 days
Method: as §1

Sp1 = Sp1 quantitation in nuclear extracts of T cells; format: cell-based, human; conditions: PHA-stimulated T cells, 5-azaC 72 h
[1] = test system: CD70-dependent B cell help; test: T cell and B cell costimulation assay with PWM, IgG ELISA; format: cell-based, human; conditions: 8 days, P<0.05
Method: T cell and B cell costimulation assays. E-rosette-purified T cells were stimulated for 16 hours with PHA and then treated with the indicated chemicals for an additional 72 hours as described above. Where indicated, T cell subsets were isolated by negative selection using magnetic beads (Miltenyi). B cells (1-4×10^5) enriched by negative selection using magnetic beads (Miltenyi) and assessed to be 70-85% pure using PE-conjugated anti-human CD21 (PharMingen), were added to washed, drug-treated autologous T cells, at T cell to B cell ratios of 4:1, 2:1, 1:1, 1:2, and 1:4. Where indicated, 0.625 μg/ml of PWM (Aldrich) was added. The cells were cultured in RPMI 1640/10% FBS/penicillin/streptomycin for 8 days in 96-well roundbottomed plates (Costar) containing a 200 μl total volume (performed in duplicate). Cells were supplemented with 50 μl of medium on day 4. […]
IgG enzyme-linked immunosorbent assays (ELISAs). […] Serial dilutions of purified human IgG (Sigma) were used for quantitation. […] The plates were read at 405 nm using a SpectraMax spectrophotometer (Molecular Devices). […]
Since CD70 participates in T cell-dependent B cell stimulation (See e.g., Kobata et al., Proc Natl Acad Sci USA 92, 11249 (1995)), the effects of DNA methylation inhibitors on CD70-dependent B cell help were examined. […] Eight days later, total IgG in the supernatants was measured by ELISA. […]

| SMILES | increase of CD70 expression on TT48E (TT48E; 1 μM 5-azaC, 3 days, P=0.048) [fold] | methylation of the 10 CG pairs between −515 and −423 of the CD70 promoter (CD70 promoter) | CD70 transcripts relative to β-actin, treated vs untreated (CD70 mRNA) | activated Sp1 levels (Sp1) | IgG secreted by B cells cultured with drug-treated T cells vs untreated T cells [1] | increase of CD70 expression on TT48E (TT48E; 40 μM U0126, 3 days, P=0.004) [fold] |
| --- | --- | --- | --- | --- | --- | --- |
| Nc1ncn([C@@H]2O[C@H](CO)[C@@H](O)[C@H]2O)c(=O)n1 [5-azaC, 5-azacytidine] | 1.69±0.33 | hypomethylated compared to controls | increase CD70 transcripts | increases activated Sp1 levels | secreted greater amounts of IgG | – |
| N#CC(=C(/N)Sc1ccccc1N)/C(C#N)=C(\N)Sc1ccccc1N [U0126] | – | appears to demethylate | increase CD70 transcripts | – | secreted greater amounts of IgG | 1.87±0.37 |
